Laboratory results published in article PMC12030627, “Radioiodinated Bicyclic RGD Peptide Derivatives for Enhanced Tumor Accumulation” (Pharmaceuticals, 2025).
Like-named read-outs stand apart in the source and are kept apart here.

Assay: Biodistribution in A549 and U-87 MG co-implantation mice
Type: in vivo, BALB/c nu-nu mice
Conditions: male, BALB/c nu-nu, mouse, iv, 37 kBq, total radioactivity, U-87 MG and A549 co-implanted mice, mean ± SD, n = 4
Experimental: Animal experiments were performed in compliance with institutional animal care regulations, with the study protocol approved by the Experimental Animal Committee of Osaka Medical and Pharmaceutical University (Approval Numbers: 21–76, 22–76, and 23–76). Four-week-old male BALB/c nu-nu mice (Japan SLC, Shizuoka, Japan) were housed under a 12 h light/12 h dark cycle with free access to food and water. Tumor-bearing mice were established by suspending U-87 MG cells (2 × 10^6 cells/mouse) in PBS(–) and subcutaneously injecting 100 μL of the suspension into the right hind leg. For co-implantation models, A549 cells (2 × 10^6 cells/mouse) were suspended in PBS(–) and inoculated (100 μL) into the left hind leg of the same mice already inoculated with U-87 MG cells. Mice with tumor size approximately 10 mm in diameter, 4–5 weeks after inoculation, were used for biodistribution studies. Animals in which either tumor was not viable were excluded from the experiment.
U-87 MG-bearing mice (n = 42, 8–9 weeks old; 22–27 g) were randomly assigned into groups and administered [^125I]bcRGDpal or [^125I]bcRGDiba via intravenous injection (37 kBq in 100 μL of PBS containing 0.1% Tween 80 (PBS-T80)). At 5 min, 30 min, 1 h, 2 h, 6 h, 12 h, or 24 h post-injection, the mice were euthanized (n = 3 per time point). The heart, kidneys, liver, brain, pancreas, spleen, lung, small intestine, large intestine, muscle, skin, stomach, bone, and tumors were excised. Each organ’s weight and radioactivity were measured by a NaI well-type scintillation counter, and the % ID/g was calculated. To investigate the correlation between integrin expression and radioactivity accumulation, biodistribution at 2 h after administration of [^125I]bcRGDpal or [^125I]bcRGDiba was assessed in A549 and U-87 MG co-implantation mice (n = 5) using the same procedure. Additionally, co-implantation mice were injected with [^125I]bcRGDdimer (37 kBq/100 μL PBS-T80) and euthanized at 30 min, 2 h, and 4 h post-injection (n = 4 per time point), and % ID/g values were calculated as described above. The minimum sample size needed for the biodistribution study in U-87 MG-bearing mice was calculated using G Power software version 3.1.9.7. The calculation was based on a two-tailed test, with an effect size of 3.9, a significance level (α) of 0.05, and a statistical power (1 − β) of 0.8. […] The minimum required sample size for the biodistribution study in A549 and U-87 MG co-implantation mice was also calculated to be four animals per group (effect size = 2.5, α = 0.05, 1 − β = 0.8). To guarantee objective results, the experiment was carried out in a blinded manner. Specifically, drug administration and radioactivity measurements were conducted by different investigators to eliminate potential bias.

N=C(N)NCCC[C@@H]1NC(=O)[C@H]2CSCc3cc(cc(c3)CSC[C@H](C(N)=O)NC(=O)[C@H](CC(=O)O)NC(=O)CNC1=O)CSC[C@H](NC(=O)CNC(=O)[C@H](CO)NC(=O)c1ccc(NC(=O)CNC(=O)[C@H](CO)NC(=O)[C@@H]3CCCN3C(=O)[C@@H]3CCCN3C(=O)[C@@H]3CCCN3C(=O)CCc3cn(CC[C@H](NC(=O)CCNC(=O)c4cccc(I)c4)C(=O)N4CCC[C@H]4C(=O)N4CCC[C@H]4C(=O)N4CCC[C@H]4C(=O)N[C@@H](CO)C(=O)NCC(=O)Nc4ccc(C(=O)N[C@@H](CO)C(=O)NCC(=O)N[C@H]5CSCc6cc7cc(c6)CSC[C@@H](NC(=O)[C@H](CCC(N)=O)NC(=O)[C@@H]6CCCN6C(=O)[C@H](Cc6c[nH]cn6)NC5=O)C(=O)N[C@@H](CCCNC(=N)N)C(=O)NCC(=O)N[C@@H](CC(=O)O)C(=O)N[C@@H](C(N)=O)CSC7)cc4)nn3)cc1)C(=O)N[C@@H](Cc1c[nH]cn1)C(=O)N1CCC[C@H]1C(=O)N[C@@H](CCC(N)=O)C(=O)N2 [[^125I]bcRGDdimer]
tissue uptake at 0.5 h (A549 tumor, 30 min after i.v. administration, read-out: Radioactivity in A549 tumor): 1.7 ± 0.6 %ID/g | tissue uptake at 2 h (A549 tumor, 2 h after i.v. administration, read-out: Radioactivity in A549 tumor): 0.8 ± 0.2 %ID/g | tissue uptake at 4 h (A549 tumor, 4 h after i.v. administration, read-out: Radioactivity in A549 tumor): 0.4 ± 0.1 %ID/g | tissue uptake at 0.5 h (U-87 MG tumor, 30 min after i.v. administration, read-out: Radioactivity in U-87 MG tumor): 7.5 ± 0.8 %ID/g | tissue uptake at 2 h (U-87 MG tumor, 2 h after i.v. administration, read-out: Radioactivity in U-87 MG tumor): 4.2 ± 1.1 %ID/g | tissue uptake at 4 h (U-87 MG tumor, 4 h after i.v. administration, read-out: Radioactivity in U-87 MG tumor): 2.9 ± 0.4 %ID/g | tissue uptake at 2 h (blood, 2 h after i.v. administration, read-out: Radioactivity in blood): 0.3 %ID/g | tissue uptake at 0.5 h (bone, 30 min after i.v. administration, read-out: Radioactivity in bone): 1.5 ± 0.3 %ID/g | tissue uptake at 2 h (bone, 2 h after i.v. administration, read-out: Radioactivity in bone): 0.9 ± 0.3 %ID/g | tissue uptake at 4 h (bone, 4 h after i.v. administration, read-out: Radioactivity in bone): 0.4 %ID/g | tissue uptake at 0.5 h (brain, 30 min after i.v. administration, read-out: Radioactivity in brain): 0.1 %ID/g | tissue uptake at 0.5 h (heart, 30 min after i.v. administration, read-out: Radioactivity in heart): 0.6 ± 0.1 %ID/g | tissue uptake at 2 h (heart, 2 h after i.v. administration, read-out: Radioactivity in heart): 0.2 %ID/g | tissue uptake at 4 h (heart, 4 h after i.v. administration, read-out: Radioactivity in heart): 0.1 %ID/g | tissue uptake at 0.5 h (kidneys, 30 min after i.v. administration, read-out: Radioactivity in kidneys): 10.9 ± 2.6 %ID/g | tissue uptake at 2 h (kidneys, 2 h after i.v. administration, read-out: Radioactivity in kidneys): 2 ± 0.2 %ID/g | tissue uptake at 4 h (kidneys, 4 h after i.v. administration, read-out: Radioactivity in kidneys): 0.9 ± 0.2 %ID/g | tissue uptake at 0.5 h (large intestine, 30 min after i.v. administration, read-out: Radioactivity in large intestine): 0.4 ± 0.2 %ID/g | tissue uptake at 2 h (large intestine, 2 h after i.v. administration, read-out: Radioactivity in large intestine): 5.5 ± 1 %ID/g | tissue uptake at 4 h (large intestine, 4 h after i.v. administration, read-out: Radioactivity in large intestine): 5.5 ± 1.4 %ID/g | tissue uptake at 0.5 h (liver, 30 min after i.v. administration, read-out: Radioactivity in liver): 0.9 ± 0.1 %ID/g | tissue uptake at 2 h (liver, 2 h after i.v. administration, read-out: Radioactivity in liver): 0.5 ± 0.1 %ID/g | tissue uptake at 4 h (liver, 4 h after i.v. administration, read-out: Radioactivity in liver): 0.3 ± 0.1 %ID/g | tissue uptake at 0.5 h (lung, 30 min after i.v. administration, read-out: Radioactivity in lung): 2.9 ± 0.5 %ID/g | tissue uptake at 2 h (lung, 2 h after i.v. administration, read-out: Radioactivity in lung): 1.2 ± 0.3 %ID/g | tissue uptake at 4 h (lung, 4 h after i.v. administration, read-out: Radioactivity in lung): 0.4 ± 0.1 %ID/g | tissue uptake at 0.5 h (muscle, 30 min after i.v. administration, read-out: Radioactivity in muscle): 0.7 ± 0.1 %ID/g | tissue uptake at 2 h (muscle, 2 h after i.v. administration, read-out: Radioactivity in muscle): 0.2 %ID/g | tissue uptake at 4 h (muscle, 4 h after i.v. administration, read-out: Radioactivity in muscle): 0.1 %ID/g | tissue uptake at 0.5 h (pancreas, 30 min after i.v. administration, read-out: Radioactivity in pancreas): 0.5 ± 0.1 %ID/g | tissue uptake at 2 h (pancreas, 2 h after i.v. administration, read-out: Radioactivity in pancreas): 0.2 ± 0.1 %ID/g | tissue uptake at 4 h (pancreas, 4 h after i.v. administration, read-out: Radioactivity in pancreas): 0.1 %ID/g | tissue uptake at 0.5 h (small intestine, 30 min after i.v. administration, read-out: Radioactivity in small intestine): 3.6 ± 0.6 %ID/g | tissue uptake at 2 h (small intestine, 2 h after i.v. administration, read-out: Radioactivity in small intestine): 2.3 ± 1 %ID/g | tissue uptake at 4 h (small intestine, 4 h after i.v. administration, read-out: Radioactivity in small intestine): 1.6 ± 0.4 %ID/g | tissue uptake at 0.5 h (spleen, 30 min after i.v. administration, read-out: Radioactivity in spleen): 0.7 ± 0.2 %ID/g | tissue uptake at 2 h (spleen, 2 h after i.v. administration, read-out: Radioactivity in spleen): 0.3 ± 0.1 %ID/g | tissue uptake at 4 h (spleen, 4 h after i.v. administration, read-out: Radioactivity in spleen): 0.2 %ID/g | tissue uptake dose at 0.5 h (stomach, 30 min after i.v. administration): 0.6 ± 0.5 %ID | tissue uptake dose at 2 h (stomach, 2 h after i.v. administration): 0.2 %ID | tissue uptake dose at 4 h (stomach, 4 h after i.v. administration): 0.3 ± 0.3 %ID | tissue uptake at 0.5 h (whole blood, 30 min after i.v. administration, read-out: Radioactivity in blood): 1.1 ± 0.1 %ID/g | tissue uptake at 2 h (whole blood, 2 h after i.v. administration, read-out: Radioactivity in blood): 0.3 ± 0.1 %ID/g | tissue uptake at 4 h (whole blood, 4 h after i.v. administration, read-out: Radioactivity in blood): 0.2 ± 0.1 %ID/g
